Results on 5 compounds are retold here after ChEMBL document CHEMBL1949659, “The green tea polyphenol (2)-epigallocatechin-3-gallate (EGCG) is not a β-secretase inhibitor” (Bioorg Med Chem Lett, 2012).

SMILES strings stand for the structures.

The target of series [1] is T1, Beta-secretase 1 (Homo sapiens, UniProt P56817).
The next series concerns CHO. Put plainly: Cytotoxicity against CHO cells transfected with human BACE1 and human APP with Swedish mutation at 1 nM to 10 uM by MTT assay. The settings on record: chinese hamster, 0.001 µM. It is filed as cell-based, Cricetulus griseus. A general note: Formazan colour is commonly taken as a measure of viable cells.
In series [2] the target is T1, Beta-secretase 1. This is another data set of the same source.
The target of series [3] is T1, Beta-secretase 1. The source holds these as a separate data set.
Series [4] addresses T1, Beta-secretase 1. This is another data set of the same source.
Series [5] deals with T1, Beta-secretase 1. This is another data set of the same source.
In series [6] the target is T1, Beta-secretase 1. This is another data set of the same source.
The target in series [7] is T1, Beta-secretase 1. This is another data set of the same source.
The target of series [8] is T1, Beta-secretase 1. This is another data set of the same source.
Series [9] deals with T1, Beta-secretase 1. The source holds these as a separate data set.
Series [10] addresses T1, Beta-secretase 1. The source holds these as a separate data set.
Series [11] has as its target T1, Beta-secretase 1. The series is described as follows: Inhibition of recombinant human BACE1 using Eu-CEVNLDAEFK-Qsy7 as substrate by HTRF assay.
For series [12], the target named is T1, Beta-secretase 1. The source holds these as a separate data set.
The target of series [13] is T1, Beta-secretase 1. The source holds these as a separate data set.
In series [14] the test system is Mus musculus. Put plainly: Antialzheimer's disease activity in mouse hippocampus assessed as inhibition of beta-secretase mediated amyloid beta1-42 production at 1.5 mg/kg. It counts as functional.
Series [15] relates to Mus musculus. Put plainly: Antialzheimer's disease activity in mouse cortex assessed as inhibition of beta-secretase mediated amyloid beta1-42 production at 3 mg/kg. It counts as functional.
Series [16] concerns Mus musculus. Put plainly: Antialzheimer's disease activity in mouse cortex assessed as inhibition of beta-secretase mediated amyloid beta1-42 production at 1.5 mg/kg. It is filed as functional.
The test system of series [17] is Mus musculus. The series is described as follows: Antialzheimer's disease activity in mouse hippocampus assessed as inhibition of beta-secretase mediated amyloid beta1-42 production at 3 mg/kg. It counts as functional.

T1 sequence (P56817 whole entry): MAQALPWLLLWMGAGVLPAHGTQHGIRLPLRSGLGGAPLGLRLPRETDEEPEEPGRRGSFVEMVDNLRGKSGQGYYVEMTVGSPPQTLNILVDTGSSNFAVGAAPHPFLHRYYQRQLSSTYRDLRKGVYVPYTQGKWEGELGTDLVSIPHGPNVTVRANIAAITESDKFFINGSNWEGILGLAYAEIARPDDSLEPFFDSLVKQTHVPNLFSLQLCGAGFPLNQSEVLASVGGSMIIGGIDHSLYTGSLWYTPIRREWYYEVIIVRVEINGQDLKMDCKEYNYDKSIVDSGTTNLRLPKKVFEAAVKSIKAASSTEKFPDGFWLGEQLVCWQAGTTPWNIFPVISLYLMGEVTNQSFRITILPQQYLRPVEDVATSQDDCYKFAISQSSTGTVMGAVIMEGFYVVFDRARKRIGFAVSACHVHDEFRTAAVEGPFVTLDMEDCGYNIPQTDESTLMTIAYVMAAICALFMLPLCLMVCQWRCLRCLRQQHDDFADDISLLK

On to `CSc1ccc2c(O)c(C(=O)Nc3ccc(N(CCO)CCO)cc3)cnc2c1`, for which the RFU at Beta-secretase 1 [1] worked out at 99.8; on Beta-secretase 1 [2], 94.8; at Beta-secretase 1 [3], 79; on Beta-secretase 1 [4], 21.7; at Beta-secretase 1 [5] it was 73; on Beta-secretase 1 [6], 26.8. Also, the RFU on Beta-secretase 1 [7] turned out to be 36.2; at Beta-secretase 1 [8], 99.8; on Beta-secretase 1 [9], 14.2; on Beta-secretase 1 [10], 69.4; at Beta-secretase 1 [12], 99.8; at Beta-secretase 1 [13], 10.5. Besides, the Activity result in the series on CHO is “Non-toxic”. For the same compound, at Beta-secretase 1 [11], the IC50 (as a rule, the concentration at which inhibition is half-maximal) was found to be 2810 nM.

Take `CSc1cccc2c(O)c(C(=O)Nc3ccc(N(CCO)CCO)cc3)cnc12`: the RFU at Beta-secretase 1 [1] was 98.3; on Beta-secretase 1 [2] it was 81.5; at Beta-secretase 1 [3], 73.8; at Beta-secretase 1 [4], 22.2; at Beta-secretase 1 [5], 67.3; at Beta-secretase 1 [6], 26.2. The RFU was 34.1 at Beta-secretase 1 [7]; 98.7 on Beta-secretase 1 [8]; 20.2 at Beta-secretase 1 [9]; 63.4 at Beta-secretase 1 [10]; 97.7 on Beta-secretase 1 [12]; 6.14 at Beta-secretase 1 [13]. Further, the Activity entry in the series with CHO is “Non-toxic”. The IC50 on Beta-secretase 1 [11] amounted to 3840 nM.

For the compound `O=C(Nc1ccc(N(CCO)CCO)cc1)c1cnc2cc(Cl)cc(Cl)c2c1O`, the RFU stood at 90.1 at Beta-secretase 1 [1]; 80.3 on Beta-secretase 1 [2]; 77.2 on Beta-secretase 1 [3]; 24.9 at Beta-secretase 1 [4]; 72 at Beta-secretase 1 [5]; 26.2 at Beta-secretase 1 [6]. Further, the RFU on Beta-secretase 1 [7] turned out to be 39.1; on Beta-secretase 1 [8], 87.4; at Beta-secretase 1 [9] it was 13.7; at Beta-secretase 1 [10] it was 65.1; on Beta-secretase 1 [12], 87.4; on Beta-secretase 1 [13], 4.36. Moreover, in the series with CHO, the Activity entry was “Non-toxic”. Also, at Beta-secretase 1 [11], the IC50 amounted to 2270 nM.

`O=C(O[C@@H]1Cc2c(O)cc(O)cc2O[C@@H]1c1cc(O)c(O)c(O)c1)c1cc(O)c(O)c(O)c1` [EPIGALOCATECHIN GALLATE]: the Activity entry in the series with CHO was “Non-toxic”. Further, the inhibition in vivo (in general, the percentage by which the read-out fell short of the control) at 1.5 mg/kg was determined as 25.5% with Mus musculus [14] and 18.6% with Mus musculus [16]. Also, the inhibition in vivo at 3 mg/kg in the series with Mus musculus [15] is 51.2%; with Mus musculus [17], 39.8%.

On to `C[C@@H](NC(=O)c1cc(C(=O)N[C@@H](Cc2ccccc2)[C@H](O)CNC2CC2)cc(N(C)S(C)(=O)=O)c1)c1ccccc1`, for which the Activity result in the series on CHO is “Non-toxic”.
